Data as given in patent US10072026B2, “Crystalline form of 3-((1R,3s,5S)-3-((7-((5-methyl-1H-pyrazol-3-yl)amino)-1,6-naphthyridin-5-yl)amino)-8-azabicyclo[3.2.1]octan-8-yl)propanenitrile” (priority 2015, dated 2018).

Tests used:
[1] = system: IL-4 induced STAT6 phosphorylation in THP-1 human monocytic cells; experiment: Cellular JAK potency assay, THP-1
JAK3 = JAK3 (Homo sapiens (Human), UniProt P52333); experiment: LanthaScreen JAK biochemical assay (JAK3)
[2] = system: IL-13 induced STAT6 phosphorylation in BEAS-2B human lung epithelial cells; experiment: AlphaScreen cellular JAK potency assay, BEAS-2B
JAK2 = JAK2 (Homo sapiens (Human), UniProt O60674); experiment: LanthaScreen JAK biochemical assay (JAK2)
JAK1 = JAK1 (Homo sapiens (Human), UniProt P23458); experiment: LanthaScreen JAK biochemical assay (JAK1)
[3] = IL-4 induced STAT6 phosphorylation, THP-1 cells
[4] = IL-13 induced STAT6 phosphorylation, BEAS-2B cells
[5] = THP-1 cells, IL-4 induced STAT6 phosphorylation
[6] = BEAS-2B cells, IL-13 induced STAT6 phosphorylation

Sequence of JAK1 (P23458 whole entry): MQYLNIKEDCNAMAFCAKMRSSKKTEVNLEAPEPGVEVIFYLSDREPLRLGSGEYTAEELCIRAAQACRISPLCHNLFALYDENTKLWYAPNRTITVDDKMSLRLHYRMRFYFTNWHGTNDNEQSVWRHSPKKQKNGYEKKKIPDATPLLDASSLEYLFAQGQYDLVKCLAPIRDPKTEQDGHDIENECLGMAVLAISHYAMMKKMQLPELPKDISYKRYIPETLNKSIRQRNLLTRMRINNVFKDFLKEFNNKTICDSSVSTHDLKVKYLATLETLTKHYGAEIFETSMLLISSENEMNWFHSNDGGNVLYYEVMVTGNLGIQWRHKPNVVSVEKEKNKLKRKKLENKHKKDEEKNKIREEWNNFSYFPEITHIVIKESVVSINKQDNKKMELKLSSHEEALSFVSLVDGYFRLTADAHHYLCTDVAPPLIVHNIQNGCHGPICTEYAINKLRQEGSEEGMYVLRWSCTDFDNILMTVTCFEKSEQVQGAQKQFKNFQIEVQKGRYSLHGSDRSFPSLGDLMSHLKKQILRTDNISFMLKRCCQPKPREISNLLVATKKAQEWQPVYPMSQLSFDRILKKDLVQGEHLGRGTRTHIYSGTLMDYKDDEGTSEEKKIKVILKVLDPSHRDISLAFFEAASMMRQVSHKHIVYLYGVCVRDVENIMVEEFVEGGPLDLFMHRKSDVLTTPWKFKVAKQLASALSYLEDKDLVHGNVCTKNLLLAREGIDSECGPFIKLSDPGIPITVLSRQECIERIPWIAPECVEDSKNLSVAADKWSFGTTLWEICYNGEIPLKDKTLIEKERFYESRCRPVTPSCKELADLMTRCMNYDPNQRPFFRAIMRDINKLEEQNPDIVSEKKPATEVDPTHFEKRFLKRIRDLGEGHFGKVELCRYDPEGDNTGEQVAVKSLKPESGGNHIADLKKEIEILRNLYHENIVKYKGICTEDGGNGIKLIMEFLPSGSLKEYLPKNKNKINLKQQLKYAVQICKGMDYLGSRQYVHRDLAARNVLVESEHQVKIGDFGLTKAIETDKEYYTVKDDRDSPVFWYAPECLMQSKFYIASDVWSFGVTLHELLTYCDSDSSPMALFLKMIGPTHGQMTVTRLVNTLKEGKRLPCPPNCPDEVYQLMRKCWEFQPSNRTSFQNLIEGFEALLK
Sequence of JAK2 (O60674 whole entry): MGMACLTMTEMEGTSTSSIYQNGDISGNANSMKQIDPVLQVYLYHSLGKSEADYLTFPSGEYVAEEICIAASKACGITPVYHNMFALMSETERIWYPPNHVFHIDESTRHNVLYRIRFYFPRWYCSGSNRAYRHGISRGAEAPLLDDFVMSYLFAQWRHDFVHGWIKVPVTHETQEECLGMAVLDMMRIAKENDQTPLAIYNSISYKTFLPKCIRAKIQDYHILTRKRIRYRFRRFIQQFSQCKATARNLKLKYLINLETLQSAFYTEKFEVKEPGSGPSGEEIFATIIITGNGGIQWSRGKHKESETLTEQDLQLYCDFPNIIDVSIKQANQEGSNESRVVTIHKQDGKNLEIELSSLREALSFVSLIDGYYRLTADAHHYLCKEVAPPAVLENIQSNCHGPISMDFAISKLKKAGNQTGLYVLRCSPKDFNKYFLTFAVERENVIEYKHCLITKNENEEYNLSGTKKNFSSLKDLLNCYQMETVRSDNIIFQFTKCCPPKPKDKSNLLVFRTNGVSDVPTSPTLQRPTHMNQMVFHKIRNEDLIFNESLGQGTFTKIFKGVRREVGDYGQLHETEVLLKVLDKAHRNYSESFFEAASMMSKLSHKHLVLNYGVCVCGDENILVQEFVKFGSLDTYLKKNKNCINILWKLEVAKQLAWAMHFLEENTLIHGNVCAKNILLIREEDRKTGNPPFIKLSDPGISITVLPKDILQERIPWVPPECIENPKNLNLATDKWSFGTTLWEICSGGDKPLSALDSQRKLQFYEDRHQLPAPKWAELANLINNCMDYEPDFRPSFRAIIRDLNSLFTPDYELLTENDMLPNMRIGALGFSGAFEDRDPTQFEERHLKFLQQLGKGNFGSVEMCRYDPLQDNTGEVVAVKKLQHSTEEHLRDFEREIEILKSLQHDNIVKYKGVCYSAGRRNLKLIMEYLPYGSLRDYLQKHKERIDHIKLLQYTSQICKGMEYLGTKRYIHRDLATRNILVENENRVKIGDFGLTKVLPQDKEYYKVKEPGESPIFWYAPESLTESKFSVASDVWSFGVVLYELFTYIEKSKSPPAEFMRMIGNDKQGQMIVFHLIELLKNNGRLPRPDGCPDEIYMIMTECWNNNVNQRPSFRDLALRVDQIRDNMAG

Row | SMILES | THP-1 IL4 pIC50 [1, 3] | JAK 3 (pKi) (JAK3) | BEAS2B pIC50 [2, 4] | JAK 2 (pKi) (JAK2) | JAK 1 (pKi) (JAK1) | THP-1 IL4 pIC50 [1, 5] | BEAS2B pIC50 [2, 6]
1 | Cc1cc(Nc2cc3ncccc3c(N[C@@H]3C[C@H]4CC[C@@H](C3)N4C(=O)C(C)F)n2)n[nH]1 (stereo partly shown) [Example 2-3] | B (B represents a pEC50 value between 6.7 and 7.5 (EC50 between 200 nM and 32 nM)) | C (C represents a pKi value between 7 and 9 (Ki between 100 nM and 1 nM)) | A (A represents a pEC50 value≥7.5 (EC50≤32 nM)) | B (B represents a pKi value between 9 and 10 (Ki between 1 nM and 0.1 nM)) | B (B represents a pKi value between 9 and 10 (Ki between 1 nM and 0.1 nM)) |  | 
2 | C=CCOC(=O)N1[C@@H]2CC[C@H]1C[C@H](Nc1nc(Nc3cc(C)[nH]n3)cc3nc(OC)ccc13)C2 [Example 5-7] | B (B represents a pEC50 value between 6.7 and 7.5 (EC50 between 200 nM and 32 nM)) | C (C represents a pKi value between 7 and 9 (Ki between 100 nM and 1 nM)) | A (A represents a pEC50 value≥7.5 (EC50≤32 nM)) |  | B (B represents a pKi value between 9 and 10 (Ki between 1 nM and 0.1 nM)) |  | 
3 | Cc1cnc2cc(Nc3cc(C)[nH]n3)nc(N[C@@H]3C[C@H]4CC[C@@H](C3)N4C(=O)OCC(C)C)c2c1 [Example 6-3] |  | C (C represents a pKi value between 7 and 9 (Ki between 100 nM and 1 nM)) |  | B (B represents a pKi value between 9 and 10 (Ki between 1 nM and 0.1 nM)) | B (B represents a pKi value between 9 and 10 (Ki between 1 nM and 0.1 nM)) | B (B represents a pEC50 value between 6.7 and 7.5 (EC50 between 200 nM and 32 nM)) | B (B represents a pEC50 value between 6.7 and 7.5 (EC50 between 200 nM and 32 nM))
4 | Cc1cnc2cc(Nc3cc(C)[nH]n3)nc(N[C@@H]3C[C@H]4CCC[C@@H](C3)N4CCC#N)c2c1 [Example 6-6] |  | B (B represents a pKi value between 9 and 10 (Ki between 1 nM and 0.1 nM)) |  | A (A represents a pKi value≥10 (Ki≤0.1 nM)) |  | A (A represents a pEC50 value≥7.5 (EC50≤32 nM)) | A (A represents a pEC50 value≥7.5 (EC50≤32 nM))
5 | COc1cnc2cc(Nc3cc(C)[nH]n3)nc(N[C@@H]3C[C@H]4CC[C@@H](C3)N4C(=O)OCC(C)C)c2c1 [Example 6-25] |  | C (C represents a pKi value between 7 and 9 (Ki between 100 nM and 1 nM)) |  |  |  | B (B represents a pEC50 value between 6.7 and 7.5 (EC50 between 200 nM and 32 nM)) | A (A represents a pEC50 value≥7.5 (EC50≤32 nM))
6 | Cc1cc(Nc2nc(N[C@@H]3C[C@H]4CC[C@@H](C3)N4CCC#N)c3cccnc3c2F)n[nH]1 [Example 8-1] |  | C (C represents a pKi value between 7 and 9 (Ki between 100 nM and 1 nM)) |  | B (B represents a pKi value between 9 and 10 (Ki between 1 nM and 0.1 nM)) | B (B represents a pKi value between 9 and 10 (Ki between 1 nM and 0.1 nM)) | B (B represents a pEC50 value between 6.7 and 7.5 (EC50 between 200 nM and 32 nM)) | 
7 | Cc1cc(Nc2nc(N[C@@H]3C[C@H]4CC[C@@H](C3)N4S(C)(=O)=O)c3cccnc3c2F)n[nH]1 [Example 8-2] |  | C (C represents a pKi value between 7 and 9 (Ki between 100 nM and 1 nM)) |  | B (B represents a pKi value between 9 and 10 (Ki between 1 nM and 0.1 nM)) | B (B represents a pKi value between 9 and 10 (Ki between 1 nM and 0.1 nM)) | A (A represents a pEC50 value≥7.5 (EC50≤32 nM)) | C (C represents a pEC50 value<6.7 (EC50>200 nM))
8 | Cc1cc(Nc2nc(N[C@@H]3C[C@H]4CCC[C@@H](C3)N4CCC#N)c3cccnc3c2F)n[nH]1 [Example 8-9] |  | C (C represents a pKi value between 7 and 9 (Ki between 100 nM and 1 nM)) |  | B (B represents a pKi value between 9 and 10 (Ki between 1 nM and 0.1 nM)) | B (B represents a pKi value between 9 and 10 (Ki between 1 nM and 0.1 nM)) | B (B represents a pEC50 value between 6.7 and 7.5 (EC50 between 200 nM and 32 nM)) | 
